Source: US8933123B2, “Polymorphic forms of O-desmethyl-venlafaxine succinate” (Cadila Healthcare Limited, priority 2010, dated 2015)

Test: Storage stability of packed crystalline forms (water content and polymorphic conversion by X-ray powder diffraction)
Assay type: physicochemical
Excerpt: The crystalline form of O-desmethyl-venlafaxine succinate obtained in example-5 or example-6 were stored under nitrogen atmosphere and packed in a non-permeable bag tied with a thread, keeping primary packing inside a black color polyethylene bag containing oxygen busters and sealing it, placing above the non-permeable bag inside a triple laminated bag containing oxygen busters and sealing it, and placing the sealed triple laminated bag inside a closed high density polyethylene (HDPE) container.

[1] = storage for 3 months at 25° C. and a relative humidity of 60%
[2] = storage for 3 months at 40° C. and a relative humidity of 75%

| Structure (SMILES) | crystalline Form-I or Form-II detected by X-ray powder diffraction after storage [1] | water content after storage [1] | crystalline Form-I or Form-II detected by X-ray powder diffraction after storage [2] | water content after storage [2] |
| --- | --- | --- | --- | --- |
| CN(C)CC(c1ccc(O)cc1)C1(O)CCCCC1.O=C(O)CCC(=O)O (centres unmarked) [Form “Z1”, O-desmethyl-venlafaxine succinate] | no detectable amount of crystalline Form-I or Form-II | ≤ 1.5% | no detectable amount of crystalline Form-I or Form-II | ≤ 1.5% |
| CN(C)CC(c1ccc(O)cc1)C1(O)CCCCC1.O=C(O)CCC(=O)O (centres unmarked) [Form “Z”, O-desmethyl-venlafaxine succinate] | no detectable amount of crystalline Form-I or Form-II | ≤ 3.0% | no detectable amount of crystalline Form-I or Form-II | ≤ 3.0% |
